{
  "source": "patent US20150133411A1",
  "about": "“COMPOUNDS WITH TRPV4 ACTIVITY, COMPOSITIONS AND ASSOCIATED METHODS THEREOF” (The University of Utah Research Foundation, priority 2012, published 2015)",
  "key": {"[1]": {"tested_on": "retinal neurons (RGCs) and glia (Müller cells)", "assay": "Hypotonic stimuli: cell swelling (change in cell area) and [Ca++]i", "format": "cell-based", "description": "FIG. 18A illustrates the effect of hypotonic stimuli on cell swelling as measured by change in cell area. Hypotonic stimuli were generated by replacing extracellular sodium levels to lower osmolarity from 300 mOsm to 190 mOsm."}, "[2]": {"tested_on": "retinal ganglion cells", "assay": "TUNEL assay of apoptotic cell death in retinas", "format": "cell-based", "details": "Compound 1 1 uM, RuR 10 μM", "protocol": "Terminal deoxynucleotidyl transferase-mediated dUTP-biotin nick end labeling (TUNEL) is a common method for detecting fragmentation that results from apoptotic signaling cascades. Retinas were embedded, cryosectioned, and processed for the TUNEL assay following the protocol by Gavrieli et al. (1992). After 30 min. rehydration in 70% ethanol, 2×5 min. rinses in PBS and 1% Triton-X in 1% citrate buffer (pH 7.3), the slides were subjected to a final rinse in PBS. Slides were then incubated for 30 min. in the reaction buffer (30 mM Trizma-HCl, 140 mM cacodylate, 1.0 mM CaCl2, 0.2% Triton X-100, pH 7.2). Positive controls were treated with DNAse I (Roche Diagnostics; Branford, Conn.; 10 U/ml) in the reaction buffer. Next, slides were treated for 1 hour with 0.03 units/μl terminal transferase and 4 μM biotin-16-dUTP (Roche Diagnostics). The reaction was terminated in 30 mM Na+ citrate, 300 mM NaCl and 0.2% Triton X-100 in PBS (5 min.) and rinsed in PBS (2×5 min), exposed to 1% bovine serum albumin in PBS for 20 min and rinsed. Apoptotic cells were visualized with a confocal microscope (Zeiss LSM510) and categorized by size. […] This was blocked by RuR and by the TRPV4 antagonist Compound 1."}, "[3]": {"target": "TRPV4 (Mus musculus, UniProt Q9EPK8)", "sequence (Q9EPK8 whole entry)": "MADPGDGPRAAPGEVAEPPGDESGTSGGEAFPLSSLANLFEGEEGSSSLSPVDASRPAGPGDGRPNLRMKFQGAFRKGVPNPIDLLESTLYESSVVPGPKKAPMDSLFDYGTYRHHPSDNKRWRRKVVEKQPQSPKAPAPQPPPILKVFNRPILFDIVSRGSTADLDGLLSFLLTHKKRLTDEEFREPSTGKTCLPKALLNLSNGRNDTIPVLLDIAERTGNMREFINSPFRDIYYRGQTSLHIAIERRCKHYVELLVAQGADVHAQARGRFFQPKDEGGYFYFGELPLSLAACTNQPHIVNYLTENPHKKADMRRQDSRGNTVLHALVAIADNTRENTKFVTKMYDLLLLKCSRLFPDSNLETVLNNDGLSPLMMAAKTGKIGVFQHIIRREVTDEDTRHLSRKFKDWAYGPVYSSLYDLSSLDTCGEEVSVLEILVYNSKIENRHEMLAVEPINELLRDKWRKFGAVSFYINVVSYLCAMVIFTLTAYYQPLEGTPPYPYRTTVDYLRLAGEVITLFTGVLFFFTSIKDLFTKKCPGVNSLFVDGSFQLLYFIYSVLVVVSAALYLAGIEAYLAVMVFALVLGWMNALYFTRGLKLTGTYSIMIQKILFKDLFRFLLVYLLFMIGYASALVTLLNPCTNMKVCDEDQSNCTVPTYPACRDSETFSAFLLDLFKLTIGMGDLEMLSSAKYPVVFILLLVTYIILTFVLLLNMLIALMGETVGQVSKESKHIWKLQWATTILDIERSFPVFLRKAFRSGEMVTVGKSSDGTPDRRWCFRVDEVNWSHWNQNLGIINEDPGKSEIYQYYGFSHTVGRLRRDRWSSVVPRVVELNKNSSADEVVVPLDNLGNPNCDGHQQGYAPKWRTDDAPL", "assay": "AGB cation influx into retinal cells (anti-AGB antibody)", "format": "cell-based", "set-up": "these two cell types express TRPV4 channels in the mouse retina; from tissue; host or cells: mouse retina (retinal ganglion cells and Müller glial cells)", "details": "mouse retina", "protocol": "FIG. 16 illustrates the effect of the TRPV4 agonist GSK on cation influx into mouse retinal cells of the mouse retina. The influx was determined using the anti-AGB antibody, as described by Marc R E (J Comp Neurol 407(1): 47-64, 1999). AGB is a membrane permeant cation that can flow through most known cation channels. Using an anti-AGB antibody, it can be determined where the cation flux occurs and, therefore, which cells are activated."}, "[4]": {"tested_on": "retinal ganglion cells", "assay": "RGC density (TuJ-1+, CFP+) in retinal wholemounts of MB-injected mice", "format": "in vivo, mouse", "protocol": "FIG. 2 confirms that the mouse model for glaucoma causes RGC degeneration. Specifically, microbeads (MBs) were injected into the anterior chamber of a mouse eye. The MBs increase intraocular IOP above 15 mm Hg by blocking outflow of the aqueous humor within the anterior chamber of the eye. MBs were reinjected as needed to maintain a high IOP, typically one injection every two weeks. Contralateral eyes were injected intraocularly with the vehicle PBS (phosphate buffered saline) as controls. […] IOP levels were measured at least twice weekly before and after intraocular injections. After injections, mice recovered for 48 hours before IOP measurements resumed. Following 4 or 8 weeks of IOP elevation, mice were intracardially perfused with 4% paraformaldehyde in 1× PBS to fix the retinas. Retinas were then removed and processed for immunohistochemistry (IHC). Whole retinas were rinsed with 1× PBS three times at room temperature then incubated in blocking buffer (1× PBS+1% BSA). […] The density of RGCs was imaged with a confocal microscope (Zeiss LSM 510) and quantified by counting NeuN-, CFP- and/or Tuj-1-labeled somata in the RGC layer of the retinal wholemount preparation. […]\nRGD density was quantified in retinas isolated from TuJ-1^+ mice and transgenic Thy1-CRP^+ transgenic mice that had been injected with either MBs or vehicle (PBS) then dosed with either compound 1 or vehicle (PBS). […] TuJ-1 was quantified by immunohistochemistry using a Tuj-1-specific antibody conjugated to a fluorescent Alexa 488 or Alexa 594 secondary antibody. […] For fluorescence immunocytochemistry, retinal wholemounts were washed in PBS, then placed for 30 min. to 1 hour in blocking solution (10 ml PBS, 30 μL Triton-X 100, 100 mg bovine serum albumin, 100 μL 10% w/v Na azide solution) in OCT (Ted Pella, Redding, Pa.). […]"}},
  "data": [
    {"compound": "Cc1c(C(=O)Nc2cccc(C(F)(F)F)c2)cc(-c2ccccc2)n1CCCN1CCOCC1", "note": "[Compound 1, N-(3-(trifluoromethyl)phenyl)-2-methyl-1-(3-morpholinopropyl)-5-phenyl-1H-pyrrole-3-carboxamide]", "values": [
      {"measurement": "hypotonic stimuli-induced increase in [Ca++]i", "setting": "[1]; FIG. 18B", "value": "inhibited"},
      {"measurement": "cell swelling (change in cell area)", "setting": "[1]; hypotonic stimuli, 300 mOsm to 190 mOsm", "value": "prevented hypotonic stimuli-mediated cell swelling to the same extent as BAPTA-AM"},
      {"measurement": "apoptotic cell death induced by hypotonic swelling (TUNEL)", "setting": "[2]; 190 mOsm saline", "value": "block apoptotic cell death"},
      {"measurement": "apoptotic cell death induced by TRPV4 agonist GSK (TUNEL)", "setting": "[2]; GSK 100 nM", "value": "block apoptotic cell death"},
      {"measurement": "effect on GSK-induced AGB cation influx", "setting": "[3]", "value": "strongly antagonized"},
      {"measurement": "TuJ-1+ cells in alpha, beta and omega regions", "setting": "[4]; MB-injected mice", "value": "rescues RGCs across all regions of the retina"},
      {"measurement": "density of RGCs (TuJ-1+ and Thy1:CFP+ cells)", "setting": "[4]; MB-injected mice, 8 weeks of increased IOP", "value": "RGC loss was rescued"},
      {"measurement": "CFP+ cells in alpha, beta and omega regions", "setting": "[4]; Thy1-CFP transgenic mice, MB-injected", "value": "rescues RGCs across all regions of the retina"}
    ]}
  ]
}
